Numbered stars: 1 amine (or outer) side, 2 acyl side, 3 side chain; on linkers, the order of the positions; unused ones are H or OH. Bridge positions count the residues as written; N and C are the ends. Square brackets hold non-standard residues; d marks the D form. Peptide text beside a SMILES is read from it. I, II: the chains in the order shown. X2 = O=C(CCOCCOCCOCCOCCOCCOCCOCCOCCOCCOCCOCCOCCOCCOCCOCCOCCOCCOCCOCCOCCOCCOCCOCCOCCOCCC(=O)[*:2])[*:1]; 2Nal = N[C@@H](Cc1ccc2ccccc2c1)C(=O)O; Diglycolyl = O=C(COCC(=O)[*:2])[*:1]; NMeR = CN[C@@H](CCCNC(=N)N)C(=O)O; β3hE = N[C@@H](CCC(=O)O)CC(=O)O; Pen = CC(C)(S)[C@H](N)C(=O)O

Sequence of α4β1 (P13612 34-1032): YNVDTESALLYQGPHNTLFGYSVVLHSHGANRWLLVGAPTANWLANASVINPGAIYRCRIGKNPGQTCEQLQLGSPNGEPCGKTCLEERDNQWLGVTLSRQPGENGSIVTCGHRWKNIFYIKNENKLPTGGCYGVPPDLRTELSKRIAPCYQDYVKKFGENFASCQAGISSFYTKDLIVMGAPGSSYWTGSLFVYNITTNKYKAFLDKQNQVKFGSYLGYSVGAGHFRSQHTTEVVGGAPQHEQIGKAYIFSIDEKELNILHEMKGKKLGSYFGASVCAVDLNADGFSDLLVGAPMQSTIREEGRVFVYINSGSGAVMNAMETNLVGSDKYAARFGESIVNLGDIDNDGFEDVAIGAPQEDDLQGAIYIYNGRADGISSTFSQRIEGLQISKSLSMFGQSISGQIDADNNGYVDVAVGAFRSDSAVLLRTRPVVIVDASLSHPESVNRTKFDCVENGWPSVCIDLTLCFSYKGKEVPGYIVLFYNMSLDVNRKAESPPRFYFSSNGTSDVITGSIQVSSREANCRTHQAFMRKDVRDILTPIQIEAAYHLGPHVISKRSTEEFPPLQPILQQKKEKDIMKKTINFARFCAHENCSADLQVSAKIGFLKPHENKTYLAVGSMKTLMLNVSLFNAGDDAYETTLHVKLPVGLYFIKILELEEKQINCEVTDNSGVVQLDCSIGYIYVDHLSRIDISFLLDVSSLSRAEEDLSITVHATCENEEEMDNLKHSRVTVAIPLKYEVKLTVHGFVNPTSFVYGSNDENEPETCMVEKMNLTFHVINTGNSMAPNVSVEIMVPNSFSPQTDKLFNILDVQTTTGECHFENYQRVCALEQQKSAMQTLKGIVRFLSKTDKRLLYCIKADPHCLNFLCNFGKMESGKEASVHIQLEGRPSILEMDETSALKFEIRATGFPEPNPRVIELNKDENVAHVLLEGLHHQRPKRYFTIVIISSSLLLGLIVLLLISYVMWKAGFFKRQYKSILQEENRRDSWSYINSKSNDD
Sequence of α4β1 (P05556 21-798): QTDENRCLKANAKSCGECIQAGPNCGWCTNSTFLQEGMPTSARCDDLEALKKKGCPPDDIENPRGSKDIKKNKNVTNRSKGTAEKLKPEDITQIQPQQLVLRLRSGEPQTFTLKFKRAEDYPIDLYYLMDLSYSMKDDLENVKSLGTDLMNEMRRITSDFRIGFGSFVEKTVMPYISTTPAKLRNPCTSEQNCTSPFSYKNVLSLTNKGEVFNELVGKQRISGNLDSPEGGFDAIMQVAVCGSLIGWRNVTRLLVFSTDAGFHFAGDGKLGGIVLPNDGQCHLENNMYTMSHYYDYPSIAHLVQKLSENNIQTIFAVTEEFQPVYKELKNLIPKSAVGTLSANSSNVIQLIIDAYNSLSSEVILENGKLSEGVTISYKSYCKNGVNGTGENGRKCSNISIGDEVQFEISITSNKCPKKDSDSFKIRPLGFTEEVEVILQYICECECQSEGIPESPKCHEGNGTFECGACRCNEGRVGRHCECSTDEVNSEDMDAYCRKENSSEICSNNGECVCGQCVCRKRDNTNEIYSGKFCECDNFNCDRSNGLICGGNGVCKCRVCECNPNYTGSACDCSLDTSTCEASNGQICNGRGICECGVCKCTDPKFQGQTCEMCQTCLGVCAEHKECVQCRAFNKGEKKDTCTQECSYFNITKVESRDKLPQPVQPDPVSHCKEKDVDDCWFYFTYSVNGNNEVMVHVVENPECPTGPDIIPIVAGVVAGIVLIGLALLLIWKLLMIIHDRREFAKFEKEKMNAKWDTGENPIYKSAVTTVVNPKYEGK

One data set concerns the target α4β1 (Homo sapiens, UniProt P05556+P13612). Put plainly: α4β1-VCAM Cell Adhesion Assay (Jurkat E6.1 human cells). The format is cell-based. Further details: host or cells: Jurkat E6.1 human T cells. The settings on record: Table 4-B; read-out: Cell Adhesion α4β1 IC50. As for the experimental part:
Jurkat E6.1 human cells (Sigma #88042803) were cultured in RPMI 1640 HEPES medium (Invitrogen #22400-089) supplemented with 10% serum (Fetal Bovine Serum, Invitrogen #16140-071), 1 mM sodium pyruvate (Invitrogen #11360-070), 2 mM L-glutamine (Invitrogen #25030-081) and Penicillin-Streptomycin (Invitrogen #15140-122) at 100 units of penicillin and 100 μg of streptomycin per ml. The cells were washed two times in DMEM medium (ATCC #30-2002) supplemented with 0.1% BSA, 10 mM HEPES pH 7 and 1 mM MnCl2. The cells were re-suspended in supplemented DMEM medium at a density of 4×10^6 cells/ml.
A Nunc MaxiSorp plate was coated with rh VCAM-1/CD106 Fc chimera (R&D #862-VC) at 400 ng per well in 50 ul per well in 1×PBS and incubated at 4° C. overnight. The solution was then removed by shaking, blocked with 250 ul per well PBS containing 1% BSA, and incubated at 37° C. for 1 hr. The solution was removed by shaking. Peptides were diluted by serial dilution in a final volume of 50 ul per well (2× concentration). To each well, 50 ul of cells (200,000 cells) were added and the plate was incubated at 37° C., 5% CO2 for 30-45 min to allow cell adhesion. The wells were washed manually three times (100 ul per wash) with supplemented DMEM. After the final wash, 100 ul/well of supplemented DMEM and 10 ul/well of MTT reagent (ATTC cat#30-1010K) were added. The plate was incubated at 37° C., 5% CO2 for 2-3 hrs until a purple precipitate was visible. 100 ul of Detergent Reagent (ATTC cat#30-1010K) was added to each well. The plate was covered from the light, wrapped in Parafilm to prevent evaporation, and left overnight at room temperature in the dark. The plate was shaken for 5 min and the absorbance at 570 nm was measured. To calculate the dose response, the absorbance value of control wells not containing cells was subtracted from each test well.
Usually IC50 stands for the point on the concentration scale where inhibition reaches its midpoint. In the case of `CC(=O)N[C@H]1CSSC[C@@H](C(=O)NCC(=O)N[C@@H](CCC(=O)O)C(=O)N[C@@H](CCCCN)C(N)=O)NC(=O)[C@H](CC(C)C)NC(=O)[C@H]([C@@H](C)O)NC(=O)[C@H](CC(=O)O)NC(=O)[C@H](CO)NC(=O)[C@H](CCCNC(=N)N)NC1=O` [compound 196, Ac-C-R-S-D-T-L-C-G-E-K-NH2] (Ac-CRSDTLCGEK-NH2; disulfide 1-7), the IC50 was > 100 µM.

As for `CC(=O)N[C@H]1CSSC[C@@H](C(=O)NCC(=O)N[C@@H](CCC(=O)O)C(=O)N[C@@H](CCCCNC(=O)CCOCCOCCOCCOCCOCCOCCOCCOCCOCCOCCOCCOCCOCCOCCOCCOCCOCCOCCOCCOCCOCCOCCOCCOCCOCCC(=O)NCCCC[C@H](NC(=O)[C@H](CCC(=O)O)NC(=O)CNC(=O)[C@@H]2CSSC[C@H](NC(C)=O)C(=O)N[C@@H](CCCNC(=N)N)C(=O)N[C@@H](CO)C(=O)N[C@@H](CC(=O)O)C(=O)N[C@@H]([C@@H](C)O)C(=O)N[C@@H](CC(C)C)C(=O)N2)C(N)=O)C(N)=O)NC(=O)[C@H](CC(C)C)NC(=O)[C@H]([C@@H](C)O)NC(=O)[C@H](CC(=O)O)NC(=O)[C@H](CO)NC(=O)[C@H](CCCNC(=N)N)NC1=O` [compound 197, (Ac-C-R-S-D-T-L-C-G-E-K-NH2)2-PEG25] (I: Ac-CRSDTLCGEK-NH2 / II: Ac-CRSDTLCGEK-NH2; disulfide I:1-I:7, II:1-II:7; linker I:10-II:10 via X2), the IC50 is > 100 µM.

Consider `CC(=O)N[C@H]1CSSC[C@@H](C(=O)NCC(=O)N[C@@H](CCC(=O)O)C(N)=O)NC(=O)[C@H](CC(C)C)NC(=O)[C@H]([C@@H](C)O)NC(=O)[C@H](CC(=O)O)NC(=O)[C@H](CO)NC(=O)[C@H](CCCNC(=N)N)N(C)C1=O` [compound 198, Ac-C-N-Me-R-S-D-T-L-C-G-E-NH2] (Ac-C[NMeR]SDTLCGE-NH2; disulfide 1-7), for which the IC50 is > 100 µM.

With `CC(=O)N[C@@H]1C(=O)N(C)[C@@H](CCCNC(=N)N)C(=O)N[C@@H](CO)C(=O)N[C@@H](CC(=O)O)C(=O)N[C@@H]([C@@H](C)O)C(=O)N[C@@H](CC(C)C)C(=O)N[C@H](C(=O)N[C@@H](Cc2c[nH]c3ccccc23)C(=O)N[C@H](CCC(=O)O)C(=O)N[C@H](CCCCNC(=O)COCC(=O)NCCCC[C@@H](NC(=O)[C@@H](CCC(=O)O)NC(=O)[C@H](Cc2c[nH]c3ccccc23)NC(=O)[C@H]2NC(=O)[C@H](CC(C)C)NC(=O)[C@H]([C@@H](C)O)NC(=O)[C@H](CC(=O)O)NC(=O)[C@H](CO)NC(=O)[C@H](CCCNC(=N)N)N(C)C(=O)[C@@H](NC(C)=O)C(C)(C)SSC2(C)C)C(N)=O)C(N)=O)C(C)(C)SSC1(C)C` [compound 211, (Ac-Pen-N-Me-R-S-D-T-L-Pen-W-e-k-NH2)2-DIG] (I: Ac-[Pen][NMeR]SDTL[Pen]W[dE][dK]-NH2 / II: Ac-[Pen][NMeR]SDTL[Pen]W[dE][dK]-NH2; disulfide I:1-I:7, II:1-II:7 (inferred); linker I:10-II:10 via Diglycolyl (inferred)), the IC50 was > 100 µM.

`CC(=O)N[C@@H]1C(=O)N(C)[C@@H](CCCNC(=N)N)C(=O)N[C@@H](CO)C(=O)N[C@@H](CC(=O)O)C(=O)N[C@@H]([C@@H](C)O)C(=O)N[C@@H](CC(C)C)C(=O)N[C@H](C(=O)N[C@@H](Cc2ccc3ccccc3c2)C(=O)N[C@@H](CCC(=O)O)C(=O)N[C@H](CCCCNC(=O)COCC(=O)NCCCC[C@@H](NC(=O)[C@H](CCC(=O)O)NC(=O)[C@H](Cc2ccc3ccccc3c2)NC(=O)[C@H]2NC(=O)[C@H](CC(C)C)NC(=O)[C@H]([C@@H](C)O)NC(=O)[C@H](CC(=O)O)NC(=O)[C@H](CO)NC(=O)[C@H](CCCNC(=N)N)N(C)C(=O)[C@@H](NC(C)=O)C(C)(C)SSC2(C)C)C(N)=O)C(N)=O)C(C)(C)SSC1(C)C` [compound 212, (Ac-Pen-N-Me-R-S-D-T-L-Pen-2-Nal-E-k-NH2)2-DIG] (I: Ac-[Pen][NMeR]SDTL[Pen][2Nal]E[dK]-NH2 / II: Ac-[Pen][NMeR]SDTL[Pen][2Nal]E[dK]-NH2; disulfide I:1-I:7, II:1-II:7 (inferred); linker I:10-II:10 via Diglycolyl (inferred)): the IC50 is > 100 µM.

In the case of `CC(=O)N[C@@H]1C(=O)N(C)[C@@H](CCCNC(=N)N)C(=O)N[C@@H](CO)C(=O)N[C@@H](CC(=O)O)C(=O)N[C@@H]([C@@H](C)O)C(=O)N[C@@H](CC(C)C)C(=O)N[C@H](C(=O)N[C@@H](Cc2c[nH]c3ccccc23)C(=O)N[C@@H](CCC(=O)O)CC(=O)N[C@H](CCCCNC(=O)COCC(=O)NCCCC[C@@H](NC(=O)C[C@H](CCC(=O)O)NC(=O)[C@H](Cc2c[nH]c3ccccc23)NC(=O)[C@H]2NC(=O)[C@H](CC(C)C)NC(=O)[C@H]([C@@H](C)O)NC(=O)[C@H](CC(=O)O)NC(=O)[C@H](CO)NC(=O)[C@H](CCCNC(=N)N)N(C)C(=O)[C@@H](NC(C)=O)C(C)(C)SSC2(C)C)C(N)=O)C(N)=O)C(C)(C)SSC1(C)C` [compound 213, [Ac-Pen-(N-Me-Arg)-Ser-Asp-Thr-Leu-Pen-Trp-(β-homoGlu)-(D-Lys)-NH2]2-DIG] (I: Ac-[Pen][NMeR]SDTL[Pen]W[β3hE][dK]-NH2 / II: Ac-[Pen][NMeR]SDTL[Pen]W[β3hE][dK]-NH2; disulfide I:1-I:7, II:1-II:7; linker I:10-II:10 via Diglycolyl), the IC50 is > 100 µM.

Tested on in another data set: not listed separately
The experiment in a line: Plasma Stability Assay. The format is in vitro ADME. The settings on record: rat, Table 4-C, t1/2. As for the experimental part: 0.5 mL of rat plasma (one tube per peptide, volume depends on how many time points are to be collected, 50 μL per time point) was added to each well of a 96-well polypropylene plate, and the tubes were incubated in a heated water bath, preset to 37° C. with gentle shaking. 1 μL of 10 mM peptide stock solution was added to each tub, and then 200 μL of Acetonitrile w/0.1% Formic Acid was added to each tube (1:4). Samples were collected at the following time points: 0, 10, 30, 45, 60, 120, 180 mins. When all time points were collected, the plate was centrifuged at 5000 rpm for 5 mins. LCM analysis was performed by pipetting 100 μL of each sample to appropriate well of a 96-well deep plate. 100 μL of an internal standard peptide (1 ug/mL) was added in Mobile Phase A to each well. The plate was vortexed and injected
In general, half-life refers to the time needed for the level to fall by half in the phase considered. A higher half-life goes with slow decline. In turn, `CC(=O)N[C@H]1CSSC[C@@H](C(=O)NCC(=O)N[C@@H](CCC(=O)O)C(=O)N[C@@H](CCCCN)C(=O)O)NC(=O)[C@H](CC(C)C)NC(=O)[C@H]([C@@H](C)O)NC(=O)[C@H](CC(=O)O)NC(=O)[C@H](CO)NC(=O)[C@H](CCCNC(=N)N)N(C)C1=O` [compound 199, Ac-C-N-Me-R-S-D-T-L-C-G-E-K-OH] (Ac-C[NMeR]SDTLCGEK-OH; disulfide 1-7) displayed a half-life at 20 μM of 1.35 h.

Compound `CC(=O)N[C@H]1CSSC[C@@H](C(=O)NCC(=O)N[C@@H](CCC(=O)O)C(=O)N[C@@H](CCCCNC(=O)COCC(=O)NCCCC[C@H](NC(=O)[C@H](CCC(=O)O)NC(=O)CNC(=O)[C@@H]2CSSC[C@H](NC(C)=O)C(=O)N(C)[C@@H](CCCNC(=N)N)C(=O)N[C@@H](CO)C(=O)N[C@@H](CC(=O)O)C(=O)N[C@@H]([C@@H](C)O)C(=O)N[C@@H](CC(C)C)C(=O)N2)C(=O)O)C(=O)O)NC(=O)[C@H](CC(C)C)NC(=O)[C@H]([C@@H](C)O)NC(=O)[C@H](CC(=O)O)NC(=O)[C@H](CO)NC(=O)[C@H](CCCNC(=N)N)N(C)C1=O` [compound 201, (Ac-C-N-Me-R-S-D-T-L-C-G-E-K-OH)2-DIG] (I: Ac-C[NMeR]SDTLCGEK-OH / II: Ac-C[NMeR]SDTLCGEK-OH; disulfide I:1-I:7, II:1-II:7 (inferred); linker I:10-II:10 via Diglycolyl (inferred)) returned a half-life at 20 μM of 2.02 h.

With `CC(=O)N[C@H]1CSSC(C)(C)[C@@H](C(=O)N[C@@H](CCC(=O)O)C(=O)N[C@H](CCCCNC(=O)COCC(=O)NCCCC[C@@H](NC(=O)[C@H](CCC(=O)O)NC(=O)[C@H]2NC(=O)[C@H](CC(C)C)NC(=O)[C@H]([C@@H](C)O)NC(=O)[C@H](CC(=O)O)NC(=O)[C@H](CO)NC(=O)[C@H](CCCNC(=N)N)N(C)C(=O)[C@@H](NC(C)=O)CSSC2(C)C)C(N)=O)C(N)=O)NC(=O)[C@H](CC(C)C)NC(=O)[C@H]([C@@H](C)O)NC(=O)[C@H](CC(=O)O)NC(=O)[C@H](CO)NC(=O)[C@H](CCCNC(=N)N)N(C)C1=O` [compound 205, (Ac-C-N-Me-R-S-D-T-L-Pen-E-k-NH2)2-DIG] (I: Ac-C[NMeR]SDTL[Pen]E[dK]-NH2 / II: Ac-C[NMeR]SDTL[Pen]E[dK]-NH2; disulfide I:1-I:7, II:1-II:7 (inferred); linker I:9-II:9 via Diglycolyl (inferred)), the half-life at 20 μM is > 6 h.

Values taken from patent publication US9809623B2, “α4β7 peptide monomer and dimer antagonists” (Protagonist Therapeutics, Inc., priority 2014, dated 2017).
